Reference: patent US8815903B2, “Indole derivative and pharmacologically acceptable salt thereof” (Kissei Pharmaceutical Co., Ltd., priority 2011, dated 2014)

Columns and labels:
[1] = system: Sulprostone-Induced Bladder Contraction; experiment: Inhibitory effect of compound on sulprostone-induced bladder contraction; assay type: in vivo, rat; details: female SD rats, urethane anesthesia, sulprostone 0.3 mg/kg s.c., test agent 1.0 mg/kg intravenously; for Bladder Contraction Inhibition Rate 15 minutes: 15 minutes from administration; for Bladder Contraction Inhibition Rate 60 minutes: 60 minutes from administration
Source text: Inhibitory Effect of Compound on Sulprostone-Induced Bladder Contraction
Female SD rats were used. Under urethane anesthesia (1.25 g/kg, administered subcutaneously), a tracheal cannula (Size 8, HIBIKI) and a femoral vein cannula for administration (23 G needle-equipped PESO) were inserted thereinto. The bladder cannula (PESO) was inserted from the bladder apex. The bladder cannula was connected to a three-way stopcock, and then, one was connected to a pressure transducer and the other was connected to a syringe filled with saline. Saline was injected to the bladder at an injection rate of 3.6 mL/hour and the bladder contraction pressure was recorded at the time of injection with a recorder (RECTI-HORITZ-8K, NEC Corporation). After 10 minutes from stabilization of the bladder contraction pressure during urination, sulprostone was administered subcutaneously (0.3 mg/kg). Then, at the time point when the bladder contraction pressure became constant, a test agent was administered intravenously (1.0 mg/kg). An average bladder contraction pressure during the 10 minute period before administration of sulprostone was taken as a baseline (0%). Further, an average bladder contraction pressure during the 10 minute period directly before administration of the test agent was taken as a maximum bladder contraction pressure (100%). The average bladder contraction pressures were measured during 5 minutes before and after at 15 minutes and 60 minutes from administration of the test agent. The ratio of this measured value to the maximum bladder contraction pressure was calculated by the following equation and taken as an average bladder contraction rate after administration of the test agent: (Average Bladder Contraction Rate after Administration of Test Agent (%))=[(Average Bladder Contraction Pressure after Administration of Test Agent)/(Maximum Bladder Contraction Pressure)]×100 EQUATION 1
In addition, the difference between the maximum bladder contraction rate (100%) and the average bladder contraction rate (%) after administration of the test agent was calculated by the following equation and taken as a bladder contraction inhibition rate of the test agent: (Bladder Contraction Inhibition Rate)=100%−(Average Bladder Contraction Rate after Administration of Test Agent (%)) EQUATION 2

rat EP1 receptor = target: T1, rat EP1 receptor (Rattus norvegicus, UniProt P70597); experiment: Test for confirmation of EP1 receptor antagonism (inhibition of PGE2-induced increase in intracellular calcium concentration); assay type: cell-based; details: rat EP1 receptor-expressing COS-1 cells; prostaglandin E2 10 nM; fluorescent calcium indicator, FDSS 7000
T1 construct: expressed in transfected cells
T1 sequence (P70597 1-405): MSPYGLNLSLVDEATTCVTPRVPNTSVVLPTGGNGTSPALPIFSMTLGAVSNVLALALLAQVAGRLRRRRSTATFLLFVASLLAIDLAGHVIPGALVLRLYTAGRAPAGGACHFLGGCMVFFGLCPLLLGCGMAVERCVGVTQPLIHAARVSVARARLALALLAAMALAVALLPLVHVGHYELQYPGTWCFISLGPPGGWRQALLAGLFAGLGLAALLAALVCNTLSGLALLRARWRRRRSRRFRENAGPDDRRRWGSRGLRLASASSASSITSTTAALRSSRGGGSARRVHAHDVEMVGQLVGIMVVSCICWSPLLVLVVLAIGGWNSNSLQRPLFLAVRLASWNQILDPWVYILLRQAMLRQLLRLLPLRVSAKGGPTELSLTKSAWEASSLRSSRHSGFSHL
How it was run: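 COS-1 cells seeded at 5×10^4 cells/well in D-MEM with 10% fetal calf serum, then transiently transfected about 2 h later with a rat EP1 expression vector (200 ng/well) via Lipofectamine 2000. Antagonism measured as inhibition of PGE2-induced rise in intracellular calcium.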

| SMILES | Bladder Contraction Inhibition Rate 15 minutes [1] [%] | Bladder Contraction Inhibition Rate 60 minutes [1] [%] | IC50 (rat EP1 receptor) [nM] |
| --- | --- | --- | --- |
| COc1ccc2c(Cc3cccc(-c4nnn[nH]4)n3)c(C3(C)CC3)[nH]c2c1 [Example 17-11, 6-methoxy-2-(1-methylcyclopropyl)-3-[6-(1H-tetrazol-5-yl)pyridin-2-ylmethyl]-1H-indole] | 92.8 | 100.9 | 11 |
| Cc1ccc2c(Cc3cccc(-c4nnn[nH]4)n3)c(C3(C)CC3)[nH]c2c1 [Example 17-12, 6-methyl-2-(1-methylcyclopropyl)-3-[6-(1H-tetrazol-5-yl)pyridin-2-ylmethyl]-1H-indole] | 81.9 | 74.7 | 14 |
| COc1cc2[nH]c(C3(C)CC3)c(Cc3cccc(-c4nnn[nH]4)n3)c2cc1Cl [Example 20-3, 5-chloro-6-methoxy-2-(1-methylcyclopropyl)-3-[6-(1H-tetrazol-5-yl)pyridin-2-ylmethyl]-1H-indole] | 71.7 | 50.0 | 27 |
